{"source": "patent US8461410B2", "about": "“Wound dressing materials comprising complexes of anionic polysaccharides with silver” (Ethicon, Inc., priority 2002, dated 2013)", "key": {"[1]": {"test_system": "Pseudomonas aeruginosa", "assay": "Zone of inhibition test of bactericidal activity (Procedure 1)", "assay_type": "cell-based", "conditions": "2 cm x 2 cm sample on inoculated DSA plate, 37° C., read every 24 hours; FIG. 3", "description": "(§1) Six 2 cm×2 cm squares of each sample were cut out in sterile conditions. On day one of the experiment cultures of both Pseudomonas aeruginosa and Staphylococcus aureus were incubated aerobically at 37° C. for 24 hours on Diagnostic Sensitivity Agar (DSA). After 24 hours test samples were each placed on a DSA plate and were immediately wetted with 0.5 mls of a buffer solution. Three squares of sample were placed on plates inoculated with Pseudomonas aeruginosa and three were placed on plates inoculated with Staphylococcus aureus. The plates were then incubated at 37° C. for 24 hours. The zone of inhibited growth around the sample was then measured using callipers and the test sample was placed on a new inoculated DSA plate. A swab test was carried out on the area beneath the sample to determine if the sample was bacteriostatic if not bactericidal by smearing the swab on a DSA plate and incubating it for 24 hours and then examining the growth. The samples were transferred onto fresh inoculated plates with the above procedure being carried out every 24 hours for 72 hours as long as the samples remain intact.\n(§2) As a negative control, a freeze dried sponge of 45% ORC/55% collagen without any silver was tested."}, "[2]": {"test_system": "Staphylococcus aureus", "assay": "Zone of inhibition test of bactericidal activity (Procedure 1)", "assay_type": "cell-based", "conditions": "2 cm x 2 cm sample on inoculated DSA plate, 37° C., read every 24 hours; FIGS. 1 and 2", "description": "as §1, §2"}}}
{"compound": "O=[N+]([O-])[O-].[Ag+]", "note": "[silver nitrate solution (0.5%), silver nitrate]", "values": [{"measurement": "bactericidal effect / zone of inhibition against Pseudomonas aeruginosa", "setting": "[1]", "value": "zones of inhibition were observed"}, {"measurement": "bactericidal effect / zone of inhibition against Staphylococcus aureus", "setting": "[2]", "value": "zones of inhibition were observed"}]}
